Where two headings read alike, the source gives them in different places.

In test [1] the target is GST-p53 DNA binding domain (aa 92-aa 312) (Homo sapiens, UniProt P04637). As to the kind of experiment: Scintillation Proximity Assay (SPA), displacement of 3H STANDARD COMPOUND
As to conditions: for remaining activity at 2 µg/mL: 1 h. From the text: Most of the oncogenic mutants of the tumor suppressor protein p53 lack sequence specific DNA binding activity at physiological temperature due to conformational changes in the DNA binding domain. Small molecules and peptide which bind to the p53 DNA binding domain stabilize the conformation and restore DNA binding activity to mutant p53 protein (Science 286, 2507-2510, 1999; PNAS, 99, 937-942, 2002). Using ^3H STANDARD COMPOUND (which is ^3H of the compound #1 of the present invention; the * Carbon atom is the one labeled; structure shown below), [drawing 2234] a radio labeled small molecule which binds to p53, and the GST-p53 DNA binding domain (aa 92-aa 312), we have developed a quantitative screening assay. The assay is based on Scintillation Proximity Assay (SPA) technology, developed by Amersham Biosciences to measure molecular interactions. Briefly, the complex of GST-p53, ^3H STANDARD and Glutathione-SPA beads (Amersham Biosciences) are incubated with mixing for 1 hr at room temperature in the presence of the novel compounds to be screened. The signal is read on Microbeta. The compounds which have the ability to displace ^3H STANDARD COMPOUND are selected. Such molecules will stabilize the conformation and restore DNA binding activity to mutant p53 protein.
The above assay was used to determine the ability of the compounds of this invention to restore DNA binding activity to mutant p53 and the results for selected compounds have been given above in various tables.
A letter rating corresponding to % Residual total binding (T) @ 2 ug/mL of drug (i.e., compound of the present invention) from this assay have been assigned as follows: Compounds having % Residual T values of from 0% to less than 20% have been assigned the letter “A”. Compounds having % Residual T values of from 20% to less than 40% have been assigned the letter “B”. Compounds having % Residual T values of from 40% to less than 80% have been assigned the letter “C”. Compounds having % Residual T values of 80% or higher have been assigned the letter “D”. The exact % Residual T values @ 2 ug/mL for some illustrative compounds are shown below: […]

For test [2], the system named is Human tumor DLD1 cells containing mutant p53. As to the kind of experiment: Soft agar assay (colony outgrowth). As to conditions: DLD-1, 10-16 days. In kind it is cell-based. As to the method:
This method assesses the ability of cells to grow in the absence of adhesion, which is a characteristic of tumorigenic cell lines.
Human tumor DLD1 cells containing mutant p53 are suspended in growth medium containing 0.3% agarose and an indicated concentration of small molecule. The solution is overlayed onto growth medium solidified with 0.6% agarose containing the same concentration of the small molecule as the top layer. After the top layer is solidified the plates are incubated for 10-16 days at 37° C. under 5% CO2 to allow colony outgrowth. After incubation, colonies are stained by overlaying the agar with a solution of MTT (3-[4,5-dimethyl-thiazol-2-yl]-2,5-diphenyltetrazolium bromide; Thiazolyl blue; […] in PBS). Colonies are counted to measure growth and efficacy of the small molecule.

The next test has as its system MB468. The experiment in a line: Proliferation assay (Calcein AM viability, 72 hours). In kind it is cell-based. As to the method: This assay measures the growth suppression effects of small molecules in cells with mutant p53 vs. p53 null background. It uses Calcein AM to measure cellular viability. Cells (p53 null and mutant) are harvested and plated at 5000 cells per well in a 96-well tissue culture plate. The volume of cells in growth media is 100 µl. Serial dilutions (2× concentration) of compounds are then made and transferred to the plate of cells. The volume of compounds in the growth media is 100 μL. This dilution of compound with cells gives a 1× final dilution of compound (200 μL total volume). Plates are then incubated at 37° C. for 72 hours. Media is then poured off and Calcein AM is added at the appropriate concentration and the plates are incubated in the dark for 15 minutes and read for fluorescence. […] Compounds having EC50 values of 6 uM or higher have been assigned the letter “D”. These letter rating has been used throughout in the data tables above.

The next test has as its system pancreatic cells. The experiment in a line: Potentiation of growth suppression with temozolomide (proliferation assay, temozolomide IC50). In kind it is cell-based. As to conditions: for IC50: Homo sapiens, TMZ alone. As to the method: (§1) That the compounds of the present invention potentiate the growth suppression activity of temozolomide is illustrated by the fact that the compounds lower the temolozomide IC50 in various cell lines. The proliferation assay used is similar to that set forth above, and comprises the following general steps. • TMZ is diluted 2 fold in complete medium. • Cells are harvested and placed in each well with diluted TMZ. Cell conc. is 5000 cells per well in complete medium. • Appropriate concentration of compounds of present invention are then added to each well in combination with diluted TMZ. • Plates are incubated at 37° C. for 72 hrs. • Medium is poured off and 50 μL per well of Calcein AM (10 uM is added. Plate is then read in the fluorescent plate reader.
The extent of increase can be quantitated as is shown below in FIG. 5.

The next test deals with LN 18. The experiment in a line: Potentiation of growth suppression with temozolomide (proliferation assay, temozolomide IC50), LN 18 glioma cells. It is filed as cell-based. As to conditions: Homo sapiens, p53 mutant, TMZ alone. The protocol:
as §1

The subject of a further test is U87. The experiment in a line: Potentiation of growth suppression with temozolomide (proliferation assay, temozolomide IC50), U87 glioma cells. In kind it is cell-based. As to conditions: Homo sapiens, U-87 MG, p53 wild, TMZ alone. As to the method: as §1
Where [3] appears, read: 2 ug/mL of drug, lower is better, read-out: SPA ASSAY % Residual T @ 2 ug/mL of drug (Average of).
[4] abbreviates: 72 h, MB468 cells, 72 hours, read-out: PROLIFERATION ASSAY EC50 MB468.
Setting [5] is: read-out: SPA ASSAY (% residual T @ 2 ug/mL of drug).
Where [6] appears, read: MB468, read-out: PROLIFERATION ASSAY EC50 MB468.

Chain of GST-p53 DNA binding domain (aa 92-aa 312) (P04637 92-312): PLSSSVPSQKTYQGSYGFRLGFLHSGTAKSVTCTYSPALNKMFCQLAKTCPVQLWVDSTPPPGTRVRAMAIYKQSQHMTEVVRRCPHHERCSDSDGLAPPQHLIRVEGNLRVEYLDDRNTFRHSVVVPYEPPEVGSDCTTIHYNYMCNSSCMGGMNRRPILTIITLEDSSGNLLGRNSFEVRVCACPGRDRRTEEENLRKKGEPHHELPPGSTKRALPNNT

For orientation: IC50 means the point on the concentration scale where inhibition reaches its midpoint. Consider `CN(C)CCCNc1nc(CN2CCN(C(c3ccc(Cl)cc3)c3ccc(Cl)cc3)CC2)nc2ccccc12` [Example 1, N′-(2-{4-[BIS-(4-CHLOROPHENYL)METHYL]PIPERAZIN-1-YLMETHYL}QUINAZOLIN-4-YL)-N,N-DIMETHYLPROPANE-1,3-DIAMINE], for which the remaining activity at 2 µg/mL in test [1] (2 ug/mL of drug, lower is better, read-out: % Residual T @ 2 ug/mL rating according to scintillation proximity assay (SPA)) is 0 to 20%; in test [1] (setting [3]), 16.1%. The IC50 in test [2] amounted to 0.39 µM. Further, the EC50 with MB468 (72 h, MB468 cells, 72 hours, read-out: EC50 rating according to the proliferation assay (MB468)) is < 2 µM; in the test with MB468 (setting [4]), 1.1 µM.

On to `CN(C)CCCNc1nc(CN2CCN(Cc3cccc4ccccc34)CC2)nc2ccccc12` [Example 25-36], for which the “sensitivity of pancreatic cancer cells to temozolomide” value with pancreatic cells (in combination with temozolomide, 72 hrs) is “increase in sensitivity”. In addition, the “SPA Assay (% residual T @ 2 ug/mL of drug)” value in test [1] (2 ug/mL of drug) was “B (Compounds having % Residual T values of from 20% to less than 40% have been assigned the letter “B”)”. Also, the remaining activity at 2 µg/mL in test [1] (setting [3]) worked out at 27.9%. The EC50 is 2 µM in the test with MB468 (setting [4]) and 4 to 6 µM in the test on MB468 (MB468 cells, read-out: PROFILE-RATION ASSAY EC50 MB468).

As for `OC1CCN(c2nc(CN3CCN(C(c4ccc(Cl)cc4)c4ccc(Cl)cc4)CC3)nc3ccccc23)C1` (stereo not drawn) [Example 30-4], in test [1] (setting [5]), the remaining activity at 2 µg/mL is > 80%. Further, in the test with MB468 (setting [6]), the EC50 was > 6 µM.

Consider `CN(CCc1ccccn1)c1nc(CN2CCN(C(c3ccc(Cl)cc3)c3ccc(Cl)cc3)CC2)nc2ccccc12` [Example 30-14], for which, in test [1] (setting [5]), the remaining activity at 2 µg/mL was > 80%. Also, in the test with MB468 (setting [6]), the EC50 was 4 to 6 µM.

With `O=C(C1CCCO1)N1CCN(c2nc(CN3CCN(C(c4ccc(Cl)cc4)c4ccc(Cl)cc4)CC3)nc3ccccc23)CC1` (stereo not drawn) [Example 30-22], the remaining activity at 2 µg/mL in test [1] (setting [5]) is > 80%. Besides, the EC50 with MB468 (setting [6]) was > 6 µM.

Consider `CCN(CC)C(=O)C1CCCN(c2nc(CN3CCN(C(c4ccc(Cl)cc4)c4ccc(Cl)cc4)CC3)nc3ccccc23)C1` (stereo not drawn) [Example 30-25], for which, in test [1] (setting [5]), the remaining activity at 2 µg/mL was > 80%. In the test on MB468 (setting [6]), the EC50 is > 6 µM.

Take `CN(C)[C@@H]1CCN(c2nc(CN3CCN(C(c4ccc(Cl)cc4)c4ccc(Cl)cc4)CC3)nc3ccccc23)C1` [Example 30-26]: in test [1] (setting [5]), the remaining activity at 2 µg/mL lay within 40 to 80%. For the same compound, the EC50 in the test on MB468 (setting [6]) was > 6 µM.

Consider `OC1CCN(c2nc(CN3CCN(C(c4ccc(Cl)cc4)c4ccc(Cl)cc4)CC3)nc3ccccc23)CC1` [Example 30-27], for which the remaining activity at 2 µg/mL in test [1] (setting [5]) is > 80%. For the same compound, the EC50 in the test with MB468 (setting [6]) is 4 to 6 µM.

As for `NC(=O)C1CCN(c2nc(CN3CCN(C(c4ccc(Cl)cc4)c4ccc(Cl)cc4)CC3)nc3ccccc23)CC1` [Example 30-28], the remaining activity at 2 µg/mL in test [1] (setting [5]) was > 80%. In addition, the EC50 in the test on MB468 (setting [6]) is > 6 µM.

On to `COC(=O)C1CCN(c2nc(CN3CCN(C(c4ccc(Cl)cc4)c4ccc(Cl)cc4)CC3)nc3ccccc23)CC1` [Example 30-29], for which the remaining activity at 2 µg/mL in test [1] (setting [5]) is > 80%. In addition, in the test on MB468 (setting [6]), the EC50 is 4 to 6 µM.

For `O=c1[nH]c2ccccc2n1C1CCN(c2nc(CN3CCN(C(c4ccc(Cl)cc4)c4ccc(Cl)cc4)CC3)nc3ccccc23)CC1` [Example 30-30], the remaining activity at 2 µg/mL in test [1] (setting [5]) is 40 to 80%. Also, in the test with MB468 (setting [6]), the EC50 was 4 to 6 µM.

`Cn1nnc2c(C(N)=O)ncn2c1=O` [TMZ, temozolomide]: the half-inhibitory concentration (IC50) with LN 18 turned out to be 2700 µM; in the test on pancreatic cells (MIA PaCa-2, Miapaca-2, Pancreas, p53 mutant) it was 3320 µM; with pancreatic cells (Capan-1, Pancreas, p53 mutant), 2860 µM; in the test on pancreatic cells (Capan-2, Pancreas, p53 wild) it was 4310 µM; in the test with U87, 2540 µM.

(Values after patent US20070032502A1, “Quinazoline derivatives useful in cancer treatment” (Schering Corporation, priority 2005, published 2007).)
